Experimental data as given in patent publication US20230078511A1, “METHODS OF USING MOMELOTINIB TO TREAT JOINT INFLAMMATION” (Sierra Oncology, Inc., priority 2020, published 2023).

What was measured:
[1] = tested on: PG-PS-immunized rats; assay: PG-PS induced rat model of chronic arthritis (Example 1); assay type: in vivo, Lewis rats
Protocol: Six-week old female Lewis rats are immunized with 15 mg/kg Streptococcal Peptidoglycan-Polysaccharide (PG-PS) administered intraperitoneally (IP). Treatments with anti-inflammatory drugs of interest are commenced two weeks later and continue for 7 days (short-term) to 21 days (long-term). Disease progression is monitored as described below (see Joint Pathology, Clinical Scoring and Bio-Imaging). Blood samples are collected once weekly and processed as described below. At the conclusion of experiments, blood, serum, and organ samples are collected and processed as described herein.
Spleen and lymph node cells are isolated by mechanical pressing of the organ through a 100 µm cell strainer (Corning) in PBS. For isolation of rat synovial infiltrates, hind limbs are freed of skin, bones, and major tendons. The remaining tissue is minced and digested with 0.16 U Liberase TM, 10 µg/mL DNase I, and 60 U hyaluronidase I in RPMI at 37° C. for 1 hour. Blood is collected into heparinized tubes and used directly for blood count determination. For immunophenotyping of blood leukocytes, blood samples are depleted from red blood cells by lysis with ACK buffer (150 mM NH4Cl, 10 mM KHCO3, 0.1 mM EDTA).
Flow cytometry staining is performed as described in Parajuli et al., Int. J. Cancer 126:896-908, 2010, which is hereby incorporated by reference in its entirety. Measurements are performed with a Cytoflex S device (Beckman Coulter) and FACS Symphony (Beckton Dickinson), enabling detection of 13 and 52 fluorescence parameters, respectively, as well as automated absolute cell count determination.
For intracellular cytokine/transcription factor staining, rat and murine T cells are re-stimulated for 4 hours with phorbol 12,13-dibutyrate (PDBu) and ionomycin (50 ng/mL and 500 ng/mL, respectively) in the presence of Golgi Stop (BD Bioscience). In sum, five multicolor antibody panels per species (rat, mouse) are established (blood leukocytes, organ leukocytes, intracellular staining for Th cell subtypes, blood reticulocytes, bone marrow erythropoiesis). Data analysis is performed using FlowJo Software.
(§1) Regular monitoring of arthritis progression in all animal models is accomplished by measuring hind limb ankle joint diameters with a Vernier’s caliper (volume = D × d^2Π/6, D and d are ankle diameters measured in perpendicular axes, D > d). In murine arthritis models, animals are additionally clinically scored with a system assessing swelling and mobility of each animal’s limb, as described in Inglis et al., Arthritis Res. Ther. 8:R113, 2007, which is hereby incorporated by reference in its entirety. Each paw of an experimental animal is assessed separately as follows: 0 - normal, 1 - slight swelling or erythrema, 2 - pronounced swelling, 3 - joint rigidity. The paw scores for each animal are summed giving a maximum of 12 points per mouse. Scoring is performed by a rater blinded to the group assignment.
A rat model of chronic arthritis (PG-PS induced) was used to assess the efficacy of the dual JAK1/2 and ACVR1 inhibitor momelotinib (MMB) in vivo. Two weeks following arthritis induction by immunization with PG-PS, rats were treated with daily oral doses of MMB (5, 10, and 25 mg/kg) or vehicle for 3 weeks.
Consecutive assessment of arthritis was performed by joint thickness measurements and paw scoring. Following 3 weeks of treatment, synovial immune cell infiltration and T cell subset differentiation were quantified by multi-color flow cytometry. Cytokine gene expression was profiled by Real-Time PCR. Anemia was assessed by determination of blood hemoglobin and serum, spleen and liver iron levels.

[2] = tested on: rat model; settings: background statement; cited from earlier work
[3] = tested on: CAIA BALB/C mice; assay: CAIA murine rheumatoid arthritis model in BALB/C mice (Example 4); assay type: in vivo; settings: for mean rear paw rheumatoid arthritis score / mean rear paw thickness / mean total animal rheumatoid arthritis score: beginning on day 6, vs vehicle, MMB 50 mg/kg daily or 30 mg/kg twice daily oral, etanercept 10 mg/kg daily IP
Protocol: BALB/C mice were immunized with 2 mg anti-collagen II antibodies administered intraperitoneally (IP) on day 0 followed by intraperitoneal injection of 100 µg of lipopolysaccharide (LPS) on day 3. Beginning at RA induction, mice were treated orally for the entirety of the study either once daily vehicle, MMB (50 mg/kg), twice daily with MMB (30 mg/kg), or daily intraperitoneally, etanercept (ETA) (10 mg/kg). Consecutive assessment of rheumatoid arthritis was performed by animal and rear paw scoring, and rear paw thickness measurements.

[4] = tested on: PG-PS-immunized RA rats; assay: PG-PS rat rheumatoid arthritis (RA) model, 3 or 21 days of treatment (Example 3); assay type: in vivo, Lewis rats
Protocol: Female Lewis rats were immunized with 15 mg/kg Streptococcal Peptidoglycan-Polysaccharide (PG-PS) administered intraperitoneally (IP) to generate a rat model of rheumatoid arthritis. Rats were used to assess the efficacy of the dual JAK1/2 and ACVR1 inhibitor momelotinib (MMB) in vivo. Two weeks following rheumatoid arthritis induction by immunization with PG-PS, rats were treated with daily oral doses of MMB (5, 10, 25 mg/kg) or vehicle for 3 or 21 days.
Statistical significance was determined with one-way ANOVA for RA animals with Bonferroni post-hoc tests (N=5-10 per group, * p < 0.05, ** p < 0.01).
Cytokine gene expression was profiled by Real-Time PCR. For immunophenotyping of blood leukocytes and granulocyte counts were obtained. Anemia was assessed by determination of blood hemoglobin and serum, spleen and liver iron levels.

[5] = tested on: CAIA DBA/1 mice; assay: Collagen antibody-induced arthritis (CAIA) in DBA/1 mice (Example 2); assay type: in vivo
Text: as §1, with “Vernier's” for “Vernier’s”, “animal's” for “animal’s”, “Inglis” left out, “8:[…],” for “8:R113,”, “[…],” for “erythrema,”, “assignment. In order to evaluate efficacy of MMB treatment in a second arthritic animal model, arthritis was induced in DBA/1 mice by intravenous injection of collagen antibody cocktail on day 0 followed by intraperitoneal injection of lipopolysaccharide (LPS) on day 3. […] Comparator controls dexamethasone (1 mg/kg) or the TNF-α inhibitor, etanercept (10 mg/kg) were administered daily by intraperitoneal injection beginning on day 0.” for “assignment.”

[6] = molecular target: T1, Activin Receptor Type 1 (ACVR1) (Homo sapiens, UniProt Q04771); settings: background statement; cited from earlier work
T1 sequence (Q04771 21-509): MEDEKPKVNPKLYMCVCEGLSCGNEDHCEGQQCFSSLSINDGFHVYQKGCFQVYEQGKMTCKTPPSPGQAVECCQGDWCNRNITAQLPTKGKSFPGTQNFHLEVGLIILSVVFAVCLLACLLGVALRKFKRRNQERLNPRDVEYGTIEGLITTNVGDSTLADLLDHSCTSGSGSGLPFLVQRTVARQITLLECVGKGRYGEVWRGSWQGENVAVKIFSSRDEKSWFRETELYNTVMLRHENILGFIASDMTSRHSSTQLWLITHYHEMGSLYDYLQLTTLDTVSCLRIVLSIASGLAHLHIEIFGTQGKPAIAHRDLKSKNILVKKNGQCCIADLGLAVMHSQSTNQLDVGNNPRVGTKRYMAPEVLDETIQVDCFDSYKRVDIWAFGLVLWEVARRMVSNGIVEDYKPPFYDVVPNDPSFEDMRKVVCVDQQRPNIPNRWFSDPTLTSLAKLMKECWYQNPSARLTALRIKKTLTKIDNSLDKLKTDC

[7] = tested on: myelofibrosis patients; settings: myelofibrosis patients treated with MMB; background statement; cited from earlier work
[8] = all tested doses (5, 10, 25 mg/kg), vs vehicle in PG-PS animals
[9] = beginning at the lowest tested dose (5 mg/kg)
[10] = daily oral, 3 weeks, flow cytometry
[11] = daily oral, 3 weeks, hind limb ankle joints, flow cytometry
[12] = 21 days of treatment, compared to healthy and RA rats
[13] = 21 days of treatment, flow cytometry
[14] = beginning on day 5, vs vehicle, MMB 50 mg/kg daily or 30 mg/kg twice daily oral, etanercept 10 mg/kg daily IP

N#CCNC(=O)c1ccc(-c2ccnc(Nc3ccc(N4CCOCC4)cc3)n2)cc1 [MMB, N-(cyanomethyl)-4-(2-(4-morpholinophenylamino)pyrimidin-4-yl)benzamide]
joint swelling ([1]; 25 mg/kg): complete remission
splenic granulocytes (percentage of splenic CD45+ leukocytes) ([1]; 25 mg/kg for 3 weeks, flow cytometry): significant reduction
mean sum diameter of hind limb joints ([1]; 10 and 25 mg/kg daily oral, 3 weeks, caliper on last day of treatment, vs vehicle): significant reduction
reduction of inflammatory granulocyte infiltration in synovial tissue [1, 8]: more than 60%
reduction of macrophage infiltration in synovial tissue [1, 8]: more than 60%
arthritogenic Th17 cell differentiation [1, 9]: effectively decreased
overall CD4+ T cells in the synovia [1, 9]: effectively decreased
swelling and cartilage destruction in arthritic hind limb joints ([1]; daily oral, 3 weeks, H&E sections at 10 mg/kg): substantially inhibits
granulocytes in synovial tissue of hind limb ankle joint pairs [1, 10]: significantly reduced
inflammatory CD11b/c+ macrophages in synovial tissue [1, 10]: significantly reduced
monocytes in synovial tissue [1, 10]: significantly reduced
splenic Th1 cells [1, 10]: reduced
splenic Th17 cells [1, 10]: significant reduction
splenic Treg cells [1, 10]: not significantly altered
synovial CD4+ T cells [1, 11]: significant reductions
synovial CD8+ T cells [1, 11]: significant reductions
CD4+ T cells in the arthritic ankle synovia ([1]; lowest dose tested, 5 mg/kg): Reduction
RA-associated anemia ([1]; rats): substantial improvement
circulating hepcidin levels ([1]; rats): reduced
systemic iron ([1]; rats): mobilized
anemia [2]: correct anemia
rheumatoid arthritis scoring versus the TNF-α inhibitor etanercept ([3]; CAIA model, BALB/C mice): non-inferiority
mean rear paw rheumatoid arthritis score [3]: significant reduction
mean rear paw thickness [3]: significant reduction
mean total animal rheumatoid arthritis score [3]: significant reduction
anti-arthritic effectiveness compared with etanercept ([3]; murine CAIA RA model): at least equally effective
blood granulocyte counts ([4]; 3 days of treatment): significantly decreases
blood leukocyte counts ([4]; 3 days of treatment): significantly decreases
spleen and liver cytokine expression ([4]; 3 days of treatment, Real-Time PCR): significantly decreases
cartilage damage ([4]; 21 days of treatment, H&E-stained hind limb joint sections): alleviates
anemia [4, 12]: corrects
hepcidin [4, 12]: decreases
hind limb joint swelling ([4]; 21 days of treatment, figure shows 10 mg/kg): reduces
CD4+ T cell infiltration in hind-limb synovial tissue [4, 13]: significantly reduces
CD8+ T cell infiltration in hind-limb synovial tissue [4, 13]: significantly reduces
differentiation of splenic Th17 cells [4, 13]: inhibits
infiltration of macrophages in hind limb synovia [4, 13]: reduces
infiltration of neutrophils in hind limb synovia [4, 13]: reduces
regulatory Treg cells [4, 13]: without affecting
splenic Th1 cells [4, 13]: without affecting
iron availability ([4]; rat PG-PS model): improves
mean rear paw thickness ([5]; 20 mg/kg daily oral, days 7 and 12, vs vehicle): reduction
arthritis scoring versus the TNF-α inhibitor etanercept ([5]; CAIA model, DBA/1 mice): non-inferiority
mean rear paw arthritis score [5, 14]: significant reduction
mean rear paw thickness [5, 14]: significant reduction
mean total arthritis score [5, 14]: significant reduction
inhibition of ACVR1 [6]: potent inhibition
anemia benefit [7]: clinically reproduced

etanercept [reference compound]
mean rear paw rheumatoid arthritis score [3]: significant reduction
mean rear paw thickness [3]: significant reduction
mean total animal rheumatoid arthritis score [3]: significant reduction
mean rear paw arthritis score [5, 14]: significant reduction
mean rear paw thickness [5, 14]: significant reduction
mean total arthritis score [5, 14]: significant reduction
